Data as given in ChEMBL document CHEMBL5608230, “Systematical Mutational Analysis of FRATtide against Osteoclast Differentiation by Alanine Scanning” (ACS Med Chem Lett, 2024).
Calls of active or inactive are those of the source. No cut-off for these calls is given here.

Columns and labels:
BMMC [1] = test: Cytotoxicity against C57BL/6J mouse BMMC upto 20 uM incubated for 4 days by CCK-8 assay; format: toxicity, cell-based; details: 96 h, time 4 day
BMMC [2] = test: Inhibition of osteoclast differentiation in M-CSF/RANKL induced C57BL/6J mouse BMMC at 10 uM medium changed every other day and measured after 7 days by TRAP staining based assay; format: functional, cell-based; details: time 7.0 day
BMMC [3] = test: Inhibition of bone resorption in RANKL induced C57BL/6J mouse BMMC at 5 to 10 uM by Cytation-5 staining based assay; format: functional, cell-based; details: dose 5-10 µM
BMMC [4] = test: Inhibition of F-actin ring formation in RANKL induced C57BL/6J mouse BMMC at 5 to 10 uM medium changed every other day by Hoechst 33342 and TRITC-labeled phalloidin staining based assay; format: functional, cell-based; details: dose 5-10 µM

Substance	Activity (BMMC [1])	other results
Ac-APHRLLQQLVLSGNLIKEAVRRLHSR-NH2	Non-Toxic	–
Ac-DAHRLLQQLVLSGNLIKEAVRRLHSR-NH2	Non-Toxic	–
Ac-DPARLLQQLVLSGNLIKEAVRRLHSR-NH2	Non-Toxic	–
Ac-DPHALLQQLVLSGNLIKEAVRRLHSR-NH2	Non-Toxic	–
Ac-DPHRALQQLVLSGNLIKEAVRRLHSR-NH2	Non-Toxic	–
Ac-DPHRLAQQLVLSANLIKEAVARLHSR-NH2	Non-Toxic	–
Ac-DPHRLAQQLVLSGNLIKEAVRRLHSR-NH2	Non-Toxic	inhibition (BMMC [2]): Active
Ac-DPHRLLAQLVLSGNLIKEAVRRLHSR-NH2	Non-Toxic	–
Ac-DPHRLLQALVLSGNLIKEAVRRLHSR-NH2	Non-Toxic	–
Ac-DPHRLLQQAVLSGNLIKEAVRRLHSR-NH2	Non-Toxic	–
Ac-DPHRLLQQLALSGNLIKEAVRRLHSR-NH2	Non-Toxic	–
Ac-DPHRLLQQLVASGNLIKEAVRRLHSR-NH2	Non-Toxic	–
Ac-DPHRLLQQLVLAGNLIKEAVRRLHSR-NH2	Non-Toxic	–
Ac-DPHRLLQQLVLSANLIKEAVRRLHSR-NH2	Non-Toxic	inhibition (BMMC [3]): Active; inhibition (BMMC [2]): Active; inhibition (BMMC [4]): Active
Ac-DPHRLLQQLVLSGALIKEAVRRLHSR-NH2	Non-Toxic	–
Ac-DPHRLLQQLVLSGNAIKEAVRRLHSR-NH2	Non-Toxic	–
Ac-DPHRLLQQLVLSGNLAKEAVRRLHSR-NH2	Non-Toxic	–
Ac-DPHRLLQQLVLSGNLIAEAVRRLHSR-NH2	Non-Toxic	–
Ac-DPHRLLQQLVLSGNLIKAAVRRLHSR-NH2	Non-Toxic	–
Ac-DPHRLLQQLVLSGNLIKEAARRLHSR-NH2	Non-Toxic	–
Ac-DPHRLLQQLVLSGNLIKEAVARLHSR-NH2	Non-Toxic	inhibition (BMMC [3]): Active; inhibition (BMMC [2]): Active; inhibition (BMMC [4]): Active
Ac-DPHRLLQQLVLSGNLIKEAVRALHSR-NH2	Non-Toxic	–
Ac-DPHRLLQQLVLSGNLIKEAVRRAHSR-NH2	Non-Toxic	–
Ac-DPHRLLQQLVLSGNLIKEAVRRLASR-NH2	Non-Toxic	–
Ac-DPHRLLQQLVLSGNLIKEAVRRLHAR-NH2	Non-Toxic	–
Ac-DPHRLLQQLVLSGNLIKEAVRRLHSA-NH2	Non-Toxic	–
Ac-DPHRLLQQLVLSGNLIKEAVRRLHSR-NH2	Non-Toxic	inhibition (BMMC [2]): Active
